Assay [1] is described as follows: Inhibition of influenza A virus A/Memphis/1/71(H3N2)) sialidase. Details: species or system Influenza A virus (A/Memphis/1/1971(H3N2)).
A short description of assay [2]: Inhibition of influenza A virus A/PR/8/34(H1N1)) sialidase.

The results in this text go back to ChEMBL document CHEMBL1146288, “Thiosialoside clusters using carbosilane dendrimer core scaffolds as a new class of influenza neuraminidase inhibitors” (Bioorg Med Chem Lett, 2007).

Structures are written as SMILES.

In the case of `CC(=O)N[C@@H]1[C@@H]([C@H](O)[C@H](O)CO)O[C@](SCCCCCOCCCSCCC[Si](CCCSCCCOCCCCCS[C@@]2(C(=O)O)C[C@@H](O)[C@H](NC(C)=O)[C@@H]([C@H](O)[C@H](O)CO)O2)(CCCSCCCOCCCCCS[C@@]2(C(=O)O)C[C@@H](O)[C@H](NC(C)=O)[C@@H]([C@H](O)[C@H](O)CO)O2)CCC[Si](C)(C)CCC[Si](CCCSCCCOCCCCCS[C@@]2(C(=O)O)C[C@@H](O)[C@H](NC(C)=O)[C@@H]([C@H](O)[C@H](O)CO)O2)(CCCSCCCOCCCCCS[C@@]2(C(=O)O)C[C@@H](O)[C@H](NC(C)=O)[C@@H]([C@H](O)[C@H](O)CO)O2)CCCSCCCOCCCCCS[C@@]2(C(=O)O)C[C@@H](O)[C@H](NC(C)=O)[C@@H]([C@H](O)[C@H](O)CO)O2)(C(=O)O)C[C@H]1O`, the results for the IC50 in assay [1] and in assay [2] were 1.25 mM and 5 mM, respectively.

`CC(=O)N[C@@H]1[C@@H]([C@H](O)[C@H](O)CO)O[C@](SCCCCCOCCCSCCC[Si](CCCSCCCOCCCCCS[C@@]2(C(=O)O)C[C@@H](O)[C@H](NC(C)=O)[C@@H]([C@H](O)[C@H](O)CO)O2)(CCCSCCCOCCCCCS[C@@]2(C(=O)O)C[C@@H](O)[C@H](NC(C)=O)[C@@H]([C@H](O)[C@H](O)CO)O2)CCCSCCCOCCCCCS[C@@]2(C(=O)O)C[C@@H](O)[C@H](NC(C)=O)[C@@H]([C@H](O)[C@H](O)CO)O2)(C(=O)O)C[C@H]1O`: the IC50 in assay [1] and in assay [2] was 5 mM each time.

Turning to `CC(=O)N[C@@H]1[C@@H]([C@H](O)[C@H](O)CO)O[C@](SCCCCCOCCCSCCC[Si](CCCSCCCOCCCCCS[C@@]2(C(=O)O)C[C@@H](O)[C@H](NC(C)=O)[C@@H]([C@H](O)[C@H](O)CO)O2)(CCCSCCCOCCCCCS[C@@]2(C(=O)O)C[C@@H](O)[C@H](NC(C)=O)[C@@H]([C@H](O)[C@H](O)CO)O2)c2ccccc2)(C(=O)O)C[C@H]1O`, the IC50 in assay [1] and in assay [2] was 5 mM throughout.
